These results are taken from ChEMBL document CHEMBL1201862, “PubChem BioAssay data set” (2004).

Some test systems named below: A549; ACHN; BT-549; CCRF-CEM; DU-145; HCT-116; HCT-15; HOP-62; K562; NCI-H226; NCI-H23; NCI-H522; NCI/ADR-RES; OVCAR-3; OVCAR-4; PC-3; RXF 393; SK-MEL-5; U-251; UO-31.
Holding throughout (assay): NCI tumour cell line growth inhibition, 48 h

SMILES strings stand for the structures.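 Briefly, cells in 96-well plates were exposed to five compound concentrations for 48 h, and endpoints were estimated by linear interpolation. GI50 is the concentration that inhibits growth by half.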 The source made the active and inactive calls. Rule as the data show it: active = GI50 up to about 1.1 µM and inactive = higher.

On to `C=C1CCOC2(C(O)C(C)(O)CO)NC(=O)C1(O)NC2=O` (stereo not given), for which the GI50 in the assay on A549, in the assay with ACHN, in the assay on BT-549, in the assay with CCRF-CEM, in the assay with DU-145 and with HCT-116 was > 100 µM (inactive) throughout. Further, the GI50 in the assay on HCT-15 was over 100 µM; in the assay with HOP-62, > 100 µM (inactive); in the assay on K562, > 100 µM (inactive); in the assay with NCI-H226 it was > 100 µM (inactive); with NCI-H23, > 100 µM (inactive); with NCI-H522, > 100 µM (inactive). In addition, the GI50 in the assay on NCI/ADR-RES, with OVCAR-3, in the assay with OVCAR-4, in the assay on PC-3, with RXF 393 and in the assay on SK-MEL-5 was > 100 µM (inactive) throughout. In addition, the GI50 in the assay with U-251 and with UO-31 was > 100 µM (inactive) in each case.
Turning to `N#CC(/N=N/c1ccccc1C(=O)O)C(N)=O` (stereo not given), the GI50 in the assay with A549 is > 100 µM (inactive); in the assay with ACHN it was 68.7 µM (inactive); in the assay with BT-549, > 100 µM (inactive); in the assay with CCRF-CEM it was > 100 µM (inactive); in the assay with DU-145, > 100 µM (inactive); in the assay with HCT-116 it was > 100 µM (inactive). Further, the GI50 in the assay on HCT-15 is 68.9 µM; in the assay with HOP-62, > 100 µM (inactive); in the assay on K562 it was > 100 µM (inactive); with NCI-H226 it was 82.8 µM (inactive); with NCI-H23, > 100 µM (inactive); in the assay with NCI-H522, > 100 µM (inactive). Moreover, the GI50 in the assay with NCI/ADR-RES was 39.8 µM (inactive); in the assay with OVCAR-3 it was > 100 µM (inactive); with OVCAR-4 it was > 100 µM (inactive); in the assay with PC-3, > 100 µM (inactive); with RXF 393 it was > 100 µM (inactive); in the assay with SK-MEL-5 it was > 100 µM (inactive). Further, the GI50 with U-251 and with UO-31 was > 100 µM (inactive) each time.
Turning to `Fc1ccc(/N=C/C=C/Nc2ccc(F)cc2)cc1`, the GI50 in the assay on A549 is 8.67 µM (inactive); in the assay on ACHN, 0.11 µM (active); in the assay with BT-549, 14.1 µM (inactive); in the assay with CCRF-CEM it was 4.67 µM (inactive); in the assay on DU-145, 13.5 µM (inactive); with HCT-116, 3 µM (inactive). Also, the GI50 in the assay with HCT-15 was 0.31 µM; in the assay on HOP-62, 17.7 µM (inactive); in the assay with K562, 0.278 µM (active); in the assay on NCI-H226, 19.5 µM (inactive); in the assay with NCI-H23, 15 µM (inactive); in the assay on NCI-H522 it was 13.5 µM (inactive). Moreover, the GI50 in the assay on NCI/ADR-RES was 11.9 µM (inactive); in the assay on OVCAR-3, 16 µM (inactive); in the assay on OVCAR-4 it was 15.3 µM (inactive); in the assay on PC-3, 8.91 µM (inactive); with RXF 393 it was 15.8 µM (inactive); in the assay on SK-MEL-5 it was 4.84 µM (inactive). Moreover, the figures for the GI50 in the assay with U-251 and with UO-31 were 7.41 µM (inactive) and 6.73 µM (inactive), respectively.
Consider `C[N+](C)(C)/C=N\c1cccc2nsnc12`, for which the GI50 with A549, with ACHN, with BT-549, in the assay with CCRF-CEM, in the assay with DU-145 and in the assay with HCT-116 was > 100 µM (inactive) throughout. For the same compound, the GI50 was over 100 µM in the assay on HCT-15; > 100 µM (inactive) in the assay on HOP-62; > 100 µM (inactive) in the assay with K562; > 100 µM (inactive) in the assay with NCI-H226; > 100 µM (inactive) in the assay with NCI-H23; > 100 µM (inactive) in the assay with NCI-H522. The GI50 with NCI/ADR-RES, with OVCAR-3, with OVCAR-4, in the assay on PC-3, with RXF 393 and in the assay on SK-MEL-5 was > 100 µM (inactive) in each case. Moreover, the GI50 in the assay with U-251 and with UO-31 was > 100 µM (inactive) throughout.
